Measurements taken from patent US20260317269A1, “Oxamate Derivatives and Prodrugs to Prevent CaOx Stone Formation” (Rutgers, The State University of New Jersey, priority 2023, published 2026).

Experiment: CaOx crystallization inhibition assay, remaining free oxalate in solution measured with EnzyChrom oxalate assay kit (Assay B)
Assay type: biochemical
Details: for pEC50 / Ratio: from EC50 in the CaOx crystallization inhibition assay; for pEC50: HEPES pH 6.8, r.t., footnote c not given; for pEC50 / EC50: 72 h; for EC50: inhibition of CaOx crystallization, 10 mM HEPES buffer, pH 6.8, 150 mM NaCl, supersaturated CaOx, r.t., remaining oxalate at OD 595 nm; for Ratio: ratio to citrate (citrate = 1)
Text: Calcium oxalate (CaOx) crystallization inhibition assays in HEPES buffer, pH 6.8 include Assay A and Assay B. Assay A: Fluorescence-based assay using Quin-2 to measure the concentration of free calcium in solution (Ex 340 nm/Em 495 nm) (FIG. 1). An example assay protocol is shown below.
Assay B: Spectrophotometric assay using EnzyChrom™ oxalate assay kit from Bioassay Systems (EOXA-100) to measure the concentration of free oxalate in solution at OD 595 nm.
For CaOx crystallization inhibition assay, equal volumes of 2 mM of CaCl2) was combined with […] of Na2Ox to generate […] supersaturated solutions of CaOx in 10 mM HEPES buffer, pH 6.8 containing 150 mM NaCl. The higher concentration of Ca^++ utilized in this assay was designed to mimic the typical calcium levels found in human urine. Following incubation with varying concentrations of inhibitors at r.t. for 72 h and subsequent centrifugation, the EnzyChrom™ oxalate assay kit (EOXA-100, BioAssay Systems) was employed to measure spectrophotometrically the remaining oxalate concentration in solution at 595 nm. This assay determined the EC50 for each inhibitor. This assay was used to determine the activity of about 50 oxamate derivatives synthesized. Separately, dose response curves can be obtained for calcium concentrations and inhibitors concentrations with supersaturated solution: 250 μM CaCl2+250 μM Na2C2O4 in 10 mM HEPES, pH 6.8+150 mM NaCl; Calcium concentration in supernatent after centrifuge was measured using Quin2 via a fluorescence assay (Ex 340 nm/Em 495 nm).
Table 1 lists the EC50's obtained using this assay for various oxamate derivatives, along with other structure features such as linker length and number of OMA units for SAR analysis.

Row | SMILES | pEC50 | EC50 [µM] | Ratio
1 | O=C(O)C(=O)NCCCC[C@H](NC(=O)C(=O)O)C(=O)O [Compound 9, L-Lysine N^α,N^ε-dioxalate] | 4.20 | 63.8 | 10
2 | O=C(O)C(=O)NCCCC[C@H](NC(=O)C(=O)O)C(=O)NCCCCCNC(=O)[C@H](CCCCNC(=O)C(=O)O)NC(=O)C(=O)O [Compound 19e, N,N′-(1,5-pentylene)bis(L-Lysinamide) N^α, N^α′,N^ε,N^ε′-tetraoxalate] | 5.44 | 3.6 | 185
3 | O=C(O)C(=O)NCCNC(=O)C(=O)O [Compound 11b] | 3.89 | 127 | 5
4 | O=C(O)C(=O)NCCCC[C@H](NC(=O)C(=O)O)C(=O)NCCCCCCNC(=O)[C@H](CCCCNC(=O)C(=O)O)NC(=O)C(=O)O [Compound 19f, N,N′-(1,6-hexylene)bis(L-Lysinamide) N^α, N^α′,N^ε,N^ε′-tetraoxalate] | 6.03 | 0.925 | 719
5 | O=C(O)CC(O)(CC(=O)O)C(=O)O [Citrate, reference compound] | 3.18 | 665 | 1
